The source of these data is patent publication US20260297070A1, “CYCLIC [COMPOUND LEFT OUT] WRN INHIBITORS” (Nimbus Wadjet, Inc., priority 2023, published 2026).

The structures appear in SMILES notation.

T1 sequence (Q14191 with tags, fused parts or gaps L1074F limits assumed): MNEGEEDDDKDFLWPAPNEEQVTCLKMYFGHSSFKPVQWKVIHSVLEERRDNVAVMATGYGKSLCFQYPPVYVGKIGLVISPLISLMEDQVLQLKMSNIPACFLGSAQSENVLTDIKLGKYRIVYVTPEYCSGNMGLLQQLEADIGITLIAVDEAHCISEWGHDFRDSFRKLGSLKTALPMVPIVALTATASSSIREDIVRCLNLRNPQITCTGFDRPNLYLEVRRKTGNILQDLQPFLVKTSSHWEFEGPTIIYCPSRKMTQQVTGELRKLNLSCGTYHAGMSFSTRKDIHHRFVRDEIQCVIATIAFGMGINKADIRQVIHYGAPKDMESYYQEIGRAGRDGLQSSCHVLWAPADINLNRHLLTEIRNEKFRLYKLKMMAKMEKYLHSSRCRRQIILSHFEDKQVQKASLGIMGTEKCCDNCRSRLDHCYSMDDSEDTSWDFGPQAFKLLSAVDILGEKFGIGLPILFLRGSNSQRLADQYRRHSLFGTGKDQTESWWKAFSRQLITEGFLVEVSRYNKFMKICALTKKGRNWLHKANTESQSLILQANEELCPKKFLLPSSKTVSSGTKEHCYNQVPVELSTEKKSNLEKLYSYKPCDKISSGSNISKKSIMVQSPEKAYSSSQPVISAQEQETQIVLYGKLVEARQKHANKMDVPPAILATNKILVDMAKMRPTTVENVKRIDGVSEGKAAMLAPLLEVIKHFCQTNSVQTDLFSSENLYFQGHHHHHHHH

The assay addresses T1, human Werner helicase (WRN-BV08, Uniprot Q14191, amino acids 517-1235 with L1074F point mutation) (Homo sapiens, UniProt Q14191, L1074F).
T1 construct: Uniprot Q14191, amino acids 517-1235 with L1074F point mutation; TEV-cleavable 8×His (C, cleaved yes); made in house; host or cells: Sf9 insect cells (baculovirus)
Nature of the assay: WRN (BV08) ADP-Glo Assay. Format: biochemical. As to conditions: 0.15 nM WRN, 5 μM ATP, 0.1 nM DNA duplex, 15 min preincubation, 60 min at 25° C., pH 7.5, 1% DMSO; read-out: ADP-Glo_hWRN_IC50. The gist of the method: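 0.15 nM WRN (aa 517-1235, L1074F, Sf9-expressed, tag cleaved) preincubated 15 min at 25 °C with compound, then 5 μM ATP and 0.1 nM DNA duplex added for 60 min. Buffer: 20 mM Bicine pH 7.5, 1 mM MgCl2, 10 mM KCl, 1 mM TCEP; 1% DMSO. ADP-Glo luminescence; IC50 by 4-parameter fit.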
As to `CSC(C(=O)N(Cc1ccnc(C(C)(C)O)c1)C1C=CS(=O)(=O)C1)c1ccc(-c2ccc(F)c(F)c2)cc1F` (centres unmarked) [I-36, N-(1,1-dioxido-2,3-dihydrothiophen-3-yl)-N-((2-(2-hydroxypropan-2-yl)pyridin-4-yl)methyl)-2-(methylthio)-2-(3,3′,4′-trifluoro-[1,1′-biphenyl]-4-yl)acetamide], the IC50 is less than 500 nM. With `COc1cc(CN(C(=O)C(C(=O)N(C)C)c2ccc(-c3ccc(F)c(F)c3)cc2F)C2C=CS(=O)(=O)C2)ccn1` (centres unmarked) [I-37, N′-(1,1-dioxo-2,3-dihydro-1lambda6-thiophen-3-yl)-N′-[(2-methoxypyridin-4-yl)methyl]-N,N-dimethyl-2-{3,3′,4′-trifluoro-[1,1′-biphenyl]-4-yl}propanediamide] the figure was less than 500 nM; with `CC(C)(O)c1cc(CN(C(=O)C(F)(F)c2ccc(-c3ccc(F)c(F)c3)cc2F)[C@@H]2C=CS(=O)(=O)C2)ccn1` [I-38, (R)—N-(1,1-dioxido-2,3-dihydrothiophen-3-yl)-2,2-difluoro-N-((2-(2-hydroxypropan-2-yl)pyridin-4-yl)methyl)-2-(3,3′,4′-trifluoro-[1,1′-biphenyl]-4-yl)acetamide], less than 500 nM; with `CC(C)(O)c1cc(CN(C(=O)Cc2ccc(S(F)(F)(F)(F)F)cc2)C2C=CS(=O)(=O)C2)ccn1` (centres unmarked) [I-39, N-(1,1-dioxo-2,3-dihydro-1lambda6-thiophen-3-yl)-N-{[2-(2-hydroxypropan-2-yl)pyridin-4-yl]methyl}-2-[4-(pentafluoro-lambda6-sulfanyl)phenyl]acetamide], less than 500 nM. `O=C(Cc1ccc(S(F)(F)(F)(F)F)cc1)N(Cc1nc(C2CC2)cs1)C1C=CS(=O)(=O)C1` (centres unmarked) [I-41, N-[(4-cyclopropyl-1,3-thiazol-2-yl)methyl]-N-(1,1-dioxo-2,3-dihydro-1lambda6-thiophen-3-yl)-2-[4-(pentafluoro-lambda6-sulfanyl)phenyl]acetamide]: the IC50 is less than 500 nM. With `CC(C)(O)c1cc(CN(C(=O)Cn2cc(-c3ccc(F)cc3)cn2)C2C=CS(=O)(=O)C2)ccn1` (centres unmarked) [I-42, N-(1,1-dioxo-2,3-dihydro-1lambda6-thiophen-3-yl)-2-[4-(4-fluorophenyl)-1H-pyrazol-1-yl]-N-{[2-(2-hydroxypropan-2-yl)pyridin-4-yl]methyl}acetamide] the figure was less than 500 nM. With `CC(C)(O)c1cc(CN(C(=O)Cn2cc(-c3ccccc3)cn2)[C@@H]2C=CS(=O)(=O)C2)ccn1` [I-43, N-[(3R)-1,1-dioxo-2,3-dihydro-1lambda6-thiophen-3-yl]-N-{[2-(2-hydroxypropan-2-yl)pyridin-4-yl]methyl}-2-(4-phenyl-1H-pyrazol-1-yl)acetamide] the figure was less than 500 nM. In the case of `CC(C)(O)c1cc(CN(C(=O)Cc2ccc(S(F)(F)(F)(F)F)cc2F)C2C=CS(=O)(=O)C2)ccn1` (centres unmarked) [I-44, N-(1,1-dioxo-2,3-dihydro-1lambda6-thiophen-3-yl)-2-[2-fluoro-4-(pentafluoro-lambda6-sulfanyl)phenyl]-N-{[2-(2-hydroxypropan-2-yl)pyridin-4-yl]methyl}acetamide], the IC50 was less than 500 nM. With `COc1cc(CN(C(=O)C(OC)c2ccc(-c3ccc(F)c(F)c3)cc2F)C2C=CS(=O)(=O)C2)ccn1` (centres unmarked) [I-45, N-(1,1-dioxo-2,3-dihydro-1lambda6-thiophen-3-yl)-2-methoxy-N-[(2-methoxypyridin-4-yl)methyl]-2-{3,3′,4′-trifluoro-[1,1′-biphenyl]-4-yl}acetamide] the figure was less than 500 nM; with `COc1cc(CN(C(=O)C(C(=O)N(C)C)c2ccc(-c3ccc(F)cc3)cc2F)C2C=CS(=O)(=O)C2)ccn1` (centres unmarked) [I-46, 2-{3,4′-difluoro-[1,1′-biphenyl]-4-yl}-N-(1,1-dioxo-2,3-dihydro-1lambda6-thiophen-3-yl)-N-[(2-methoxypyridin-4-yl)methyl]-N′,N′-dimethylpropanediamide], less than 500 nM. For the compound `COC(C(=O)N(Cc1nc(C2CC2)cs1)C1C=CS(=O)(=O)C1)c1ccc(-c2ccc(F)c(F)c2)cc1F` (centres unmarked) [I-47, N-[(4-cyclopropyl-1,3-thiazol-2-yl)methyl]-N-(1,1-dioxo-2,3-dihydro-1lambda6-thiophen-3-yl)-2-methoxy-2-{3,3′,4′-trifluoro-[1,1′-biphenyl]-4-yl}acetamide], the IC50 was less than 500 nM. Consider `O=C(C(c1ccc(-c2ccc(F)c(F)c2)cc1F)n1cccn1)N(Cc1ccncc1)C1C=CS(=O)(=O)C1` (centres unmarked) [I-48, N-(1,1-dioxido-2,3-dihydrothiophen-3-yl)-2-(1H-pyrazol-1-yl)-N-(pyridin-4-ylmethyl)-2-(3,3′,4′-trifluoro-[1,1′-biphenyl]-4-yl)acetamide], for which the IC50 was less than 500 nM. With `O=C(Cn1cc(-c2ccc(F)cc2)cn1)N(Cc1nc(C2CC2)cs1)C1C=CS(=O)(=O)C1` (centres unmarked) [I-49, N-[(4-cyclopropyl-1,3-thiazol-2-yl)methyl]-N-(1,1-dioxo-2,3-dihydro-1lambda6-thiophen-3-yl)-2-[4-(4-fluorophenyl)-1H-pyrazol-1-yl]acetamide] the figure was less than 500 nM; with `CC(C)(O)c1cc(CN(C(=O)Cc2ccc(-c3ccc(F)cc3)cc2F)C2C=CS(=O)(=O)C2)ccn1` (centres unmarked) [I-52, 2-{3,4′-difluoro-[1,1′-biphenyl]-4-yl}-N-(1,1-dioxo-2,3-dihydro-1lambda6-thiophen-3-yl)-N-{[2-(2-hydroxypropan-2-yl)pyridin-4-yl]methyl}acetamide], less than 500 nM; with `COc1cc(CN(C(=O)C2CNc3cc(-c4ccc(F)cc4)ccc32)[C@@H]2C=CS(=O)(=O)C2)ccn1` (some centres unmarked) [I-53, N-(1,1-dioxido-2,3-dihydrothiophen-3-yl)-6-(4-fluorophenyl)-N-((2-methoxypyridin-4-yl)methyl)indoline-3-carboxamide], less than 500 nM.

With `COc1cc(CN(C(=O)Cn2cc(-c3cccc(F)c3)cn2)C2C=CS(=O)(=O)C2)ccn1` (centres unmarked) [I-54, N-(1,1-dioxo-2,3-dihydro-1lambda6-thiophen-3-yl)-2-[4-(3-fluorophenyl)-1H-pyrazol-1-yl]-N-[(2-methoxypyridin-4-yl)methyl]acetamide], the IC50 was less than 500 nM.

For the compound `COc1cc(CN(C(=O)C(C(=O)N(C)C)c2ccc(-c3ccc(F)cc3)cc2)C2C=CS(=O)(=O)C2)ccn1` (centres unmarked) [I-55, N-(1,1-dioxo-2,3-dihydro-1lambda6-thiophen-3-yl)-2-{4′-fluoro-[1,1′-biphenyl]-4-yl}-N-[(2-methoxypyridin-4-yl)methyl]-N′,N′-dimethylpropanediamide], the IC50 is less than 500 nM.

As to `COc1cc(CN(C(=O)Cc2ccc(-n3cccc3C)cc2F)[C@@H]2C=CS(=O)(=O)C2)ccn1` [I-56, N-[(3R)-1,1-dioxo-2,3-dihydro-1lambda6-thiophen-3-yl]-2-[2-fluoro-4-(2-methyl-1H-pyrrol-1-yl)phenyl]-N-[(2-methoxypyridin-4-yl)methyl]acetamide], the IC50 is less than 500 nM. As for `CC(C)(O)c1cc(CN(C(=O)Cn2cc(-c3ccc(Cl)cc3)cn2)C2C=CS(=O)(=O)C2)ccn1` (centres unmarked) [I-58, 2-[4-(4-chlorophenyl)-1H-pyrazol-1-yl]-N-(1,1-dioxo-2,3-dihydro-1lambda6-thiophen-3-yl)-N-{[2-(2-hydroxypropan-2-yl)pyridin-4-yl]methyl}acetamide], the IC50 is less than 500 nM. In the case of `CC(C)(O)c1cc(CN(C(=O)Cn2cc(-c3cccc(F)c3)cn2)C2C=CS(=O)(=O)C2)ccn1` (centres unmarked) [I-59, N-(1,1-dioxo-2,3-dihydro-1lambda6-thiophen-3-yl)-2-[4-(3-fluorophenyl)-1H-pyrazol-1-yl]-N-{[2-(2-hydroxypropan-2-yl)pyridin-4-yl]methyl}acetamide], the IC50 was less than 500 nM.
